Key:
[1] = molecular target: T1, GDP-loaded KRAS (1-169) G12C, C51S, C80L, C118S (Homo sapiens, UniProt P01116, C118S/C51S/C80L/G12C); assay: Mass Spectrometry Reactivity Assay (MSRA): covalent adduct of compound and KRAS G12C, Percent Modification; assay type: binding; conditions: for MSRA (% modification) 5.0 μM 0.25 hr: 5.0 μM compound; for MSRA (% modification) 10 μM 0.25 hr / MSRA (% modification) 10 μM 0.50 hr: 10 μM compound
T1 construct: GDP-loaded KRAS (1-169) G12C, C51S, C80L, C118S
Outline: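 GDP-loaded KRAS(1-169) G12C/C51S/C80L/C118S at 5 μM in 25 mM Hepes pH 7.5, 200 mM NaCl, 5% glycerol incubated at RT with compound (typically 5 or 10 μM final, 1% DMSO). Quenched in formic acid at 1-60 min; intact-protein LC-TOF MS gives % modification = modified/(modified+unmodified).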

[2] = molecular target: KRAS G12C (Homo sapiens, UniProt P01116, G12C); assay: Cell Activity Assay: accumulation of GDP-bound KRAS G12C in MIAPaCa-2 cells (Raf-1 RBD capture, MSD readout); assay type: cell-based; set-up: endogenous in cells; host or cells: MIAPaCa-2; conditions: 6 hours, assay limit is 30.00
Outline: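 MIAPaCa-2 cells exposed 6 h at 37 °C to 3-fold compound dilutions (0.3% DMSO final), then lysed. Active GTP-KRAS captured on Raf-1 RBD-coated plates, detected with anti-pan-Ras and SULFO-TAG secondary by MSD electrochemiluminescence. Signal normalized to DMSO and maximum inhibition; IC50 from 4-parameter fit.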

MSRA (% modification) 5.0 μM 0.25 hr [1] [%]	MSRA (% modification) 10 μM 0.25 hr [1] [%]	IC50 [2] [µM]	MSRA (% modification) 10 μM 0.50 hr [1] [%]	Structure (SMILES)
73	75	0.584	–	C=CC(=O)N1CCN(c2nc(N3CC(C)(C#N)C3)nc3c(Oc4c(Cl)c(F)cc5[nH]ncc45)nc(Cl)cc23)CC1 [Example 02G, 1-{4-(4-acryloylpiperazin-1-yl)-6-chloro-8-[(5-chloro-6-fluoro-1H-indazol-4-yl)oxy]pyrido[3,4-d]pyrimidin-2-yl}-3-methylazetidine-3-carbonitrile]
–	53	0.505	–	C=CC(=O)N1CCN(c2nc(N3CC(N(C)C)C3)nc3c(Oc4c(Cl)c(F)cc5[nH]ncc45)nccc23)CC1 [Example 02H, 1-(4-{8-[(5-chloro-6-fluoro-1H-indazol-4-yl)oxy]-2-[3-(dimethylamino)azetidin-1-yl]pyrido[3,4-d]pyrimidin-4-yl}piperazin-1-yl)prop-2-en-1-one]
26	–	0.62	–	C=CC(=O)N1CCN(c2nc(O[C@@H]3CCOC3)nc3c(Oc4c(Cl)c(F)cc5[nH]ncc45)nccc23)CC1 [Example 02J, 1-(4-{8-[(5-chloro-6-fluoro-1H-indazol-4-yl)oxy]-2-[(3R)-tetrahydrofuran-3-yloxy]pyrido[3,4-d]pyrimidin-4-yl}piperazin-1-yl)prop-2-en-1-one]
31	–	0.146	–	C=CC(=O)N1CCN(c2nc(OC[C@@H]3CCCN3C)nc3c(Oc4c(Cl)ccc5[nH]ncc45)cccc23)CC1 [Example 02L, 1-[4-(8-[(5-chloro-1H-indazol-4-yl)oxy]-2-{[(2S)-1-methylpyrrolidin-2-yl]methoxy}quinazolin-4-yl)piperazin-1-yl]prop-2-en-1-one]
–	–	> 30	15	C=CC(=O)N1CCN(c2ncnc3c(Oc4c(C)cccc4Cl)nccc23)CC1 [Example 03, 1-{4-[8-(2-Chloro-6-methylphenoxy)pyrido[3,4-d]pyrimidin-4-yl]piperazin-1-yl}prop-2-en-1-one]
–	–	2.74	28	C=CC(=O)N1CCN(c2ncnc3c(Oc4c(C)ccc5[nH]ncc45)nc(C(F)(F)F)cc23)CC1 [Example 03A, 1-(4-{8-[(5-methyl-1H-indazol-4-yl)oxy]-6-(trifluoromethyl)pyrido[3,4-d]pyrimidin-4-yl}piperazin-1-yl)prop-2-en-1-one]
–	–	27.1	6	C=CC(=O)N1CCN(c2nc(N3CCN(C)CC3)nc3c(Oc4c(C)ccc5[nH]ncc45)nccc23)CC1 [Example 03B, 1-(4-{8-[(5-methyl-1H-indazol-4-yl)oxy]-2-(4-methylpiperazin-1-yl)pyrido[3,4-d]pyrimidin-4-yl}piperazin-1-yl)prop-2-en-1-one]
–	3	24.2	8	C=CC(=O)N1CCN(c2ncnc3c(Oc4c(C)ccc5[nH]ncc45)cccc23)C[C@H]1C [Example 03C, 1-[(2R)-2-methyl-4-{8-[(5-methyl-1H-indazol-4-yl)oxy]quinazolin-4-yl}piperazin-1-yl]prop-2-en-1-one]
–	–	1.44	40	C=CC(=O)N1CCN(c2nc(OCCN(C)C)nc3c(Oc4c(C)ccc5[nH]ncc45)cccc23)CC1 [Example 03E, 1-(4-{2-[2-(dimethylamino)ethoxy]-8-[(5-methyl-1H-indazol-4-yl)oxy]quinazolin-4-yl}piperazin-1-yl)prop-2-en-1-one]
–	–	> 30	12	C=CC(=O)N1CCN(c2nc(NC(C)c3nncn3C)nc3c(Oc4c(C)ccc5[nH]ncc45)cccc23)CC1 (stereo not shown) [Example 03F, 1-[4-(8-[(5-methyl-1H-indazol-4-yl)oxy]-2-{[1-(4-methyl-4H-1,2,4-triazol-3-yl)ethyl]amino}quinazolin-4-yl)piperazin-1-yl]prop-2-en-1-one]
–	72	0.155	–	C=CC(=O)N1CCN(c2nc(OC[C@@H]3CCCN3C)nc3c(Oc4c(C)ccc5[nH]ncc45)nc(Cl)cc23)CC1 [Example 03G, 1-[4-(6-chloro-8-[(5-methyl-1H-indazol-4-yl)oxy]-2-{[(2S)-1-methylpyrrolidin-2-yl]methoxy}pyrido[3,4-d]pyrimidin-4-yl)piperazin-1-yl]prop-2-en-1-one]
51	–	0.842	72	C=CC(=O)N1CCN(c2nc(OC[C@@H]3COCCN3C)nc3c(Oc4c(Cl)c(F)cc5[nH]ncc45)nccc23)CC1 [Example 03H, 1-[4-(8-[(5-chloro-6-fluoro-1H-indazol-4-yl)oxy]-2-{[(3S)-4-methylmorpholin-3-yl]methoxy}pyrido[3,4-d]pyrimidin-4-yl)piperazin-1-yl]prop-2-en-1-one]
52	–	0.06	–	C=CC(=O)N1CCN(c2nc(Oc3cccnc3CC)nc3c(Oc4c(Cl)c(F)cc5[nH]ncc45)nccc23)CC1 [Example 03I, 1-(4-{8-[(5-chloro-6-fluoro-1H-indazol-4-yl)oxy]-2-[(2-ethyl-pyridin-3-yl)oxy]pyrido[3,4-d]pyrimidin-4-yl}piperazin-1-yl)prop-2-en-1-one]
77	–	0.855	–	C=CC(=O)N1CCN(c2nc(OCC3CC(=O)N(C)C3)nc3c(Oc4c(Cl)c(F)cc5[nH]ncc45)nccc23)CC1 (stereo not shown) [Example 03J, 4-[({4-(4-acryloylpiperazin-1-yl)-8-[(5-chloro-6-fluoro-1H-indazol-4-yl)oxy]pyrido[3,4-d]pyrimidin-2-yl}oxy)methyl]-1-methylpyrrolidin-2-one]
–	–	11.7	25	C=CS(=O)(=O)N1CCN(c2ncnc3c(Oc4c(Cl)c(C)cc5[nH]ncc45)nccc23)CC1 [Example 04, 8-[(5-chloro-6-methyl-1H-indazol-4-yl)oxy]-4-[4-(ethenylsulfonyl)piperazin-1-yl]pyrido[3,4-d]pyrimidine]
–	–	2.26	40	C=CC(=O)N1CCN(c2ncnc3c(Oc4c(Cl)ccc5[nH]ncc45)nc(C(F)(F)F)cc23)CC1 [Example 04A]
–	–	23	21	C=CC(=O)N1CCN(c2nc(OCCCN(C)C)nc3c(Oc4c(C)ccc5[nH]ncc45)nccc23)CC1 [Example 04B, 1-(4-{2-[3-(dimethylamino)propoxy]-8-[(5-methyl-1H-indazol-4-yl)oxy]pyrido[3,4-d]pyrimidin-4-yl}piperazin-1-yl)prop-2-en-1-one]
–	–	18.2	21	C=CC(=O)N1CCN(c2ncnc3c(Oc4c(C(F)(F)F)ccc5[nH]ncc45)nccc23)CC1 [Example 04C, 1-[4-(8-{[5-(trifluoromethyl)-1H-indazol-4-yl]oxy}pyrido[3,4-d]pyrimidin-4-yl)piperazin-1-yl]prop-2-en-1-one]
71	60	0.585	62	C=CC(=O)N1CCN(c2nc(N3CC(N(C)C)C3)nc3c(Oc4c(Cl)c(C)cc5[nH]ncc45)nccc23)CC1 [Example 04E, 1-(4-{8-[(5-chloro-6-methyl-1H-indazol-4-yl)oxy]-2-[3-(dimethylamino)azetidin-1-yl]pyrido[3,4-d]pyrimidin-4-yl}piperazin-1-yl)prop-2-en-1-one]
–	–	7.28	43	C=CC(=O)N1CCN(c2nc(NCC3CC(=O)N(C)C3)nc3c(Oc4c(C)ccc5[nH]ncc45)cccc23)CC1 (stereo not shown) [Example 04F, 4-[({4-(4-acryloylpiperazin-1-yl)-8-[(5-methyl-1H-indazol-4-yl)oxy]quinazolin-2-yl}amino)methyl]-1-methylpyrrolidin-2-one]
–	49	0.393	–	C=CC(=O)N1CCN(c2nc(OC[C@@H]3CCCN3C)nc3c(Oc4c(Cl)c(F)cc5[nH]ncc45)nc(Cl)cc23)C[C@H]1C [Example 04G, 1-[(2R)-4-(6-chloro-8-[(5-chloro-6-fluoro-1H-indazol-4-yl)oxy]-2-{[(2S)-1-methylpyrrolidin-2-yl]methoxy}pyrido[3,4-d]pyrimidin-4-yl)-2-methylpiperazin-1-yl]prop-2-en-1-one]
65	73	0.465	–	C=CC(=O)N1CCN(c2nc(OC[C@H]3CCOC3)nc3c(Oc4c(Cl)c(F)cc5[nH]ncc45)nccc23)CC1 [Example 04H, 1-(4-{8-[(5-chloro-6-fluoro-1H-indazol-4-yl)oxy]-2-[(3S)-tetrahydrofuran-3-ylmethoxy]pyrido[3,4-d]pyrimidin-4-yl}piperazin-1-yl)prop-2-en-1-one]

Structure (SMILES)	MSRA (% modification) 5.0 μM 0.25 hr [1] [%]	MSRA (% modification) 10 μM 0.25 hr [1] [%]	IC50 [2] [µM]	MSRA (% modification) 10 μM 0.50 hr [1] [%]
C=CC(=O)N1CCN(c2nc(OC[C@]3(F)CCCN(C)C3)nc3c(Oc4c(Cl)c(F)cc5[nH]ncc45)nccc23)CC1 [Example 02I, 1-[4-(8-[(5-chloro-6-fluoro-1H-indazol-4-yl)oxy]-2-{[(3S)-3-fluoro-1-methylpiperidin-3-yl]methoxy}pyrido[3,4-d]pyrimidin-4-yl)piperazin-1-yl]prop-2-en-1-one]	81	–	0.049	–
